Source: patent EP2718307B1, “BETA-HAIRPIN PEPTIDOMIMETICS AS CXC4 ANTAGONISTS” (Polyphor AG, priority 2011, dated 2012)
Bridge positions count the residues as written; N and C are the ends. Square brackets hold non-standard residues; d marks the D form. Peptide text beside a SMILES is read from it. Lys(iPr) = CC(C)NCCCC[C@H](N)C(=O)O; Orn(iPr) = CC(C)NCCC[C@H](N)C(=O)O; Dab = NCC[C@H](N)C(=O)O

Key:
[1] = target: T1, CXCR4 receptor (Homo sapiens, UniProt P61073); experiment: Chemotactic assay (cell migration assay): response of Namalwa cells to an SDF-1 gradient; assay type: cell-based
T1 construct: Namalwa cells (CXCR4 natively expressing non-adherent cells, ATCC CRL-1432); host or cells: Namalwa cells
T1 sequence (P61073 whole entry): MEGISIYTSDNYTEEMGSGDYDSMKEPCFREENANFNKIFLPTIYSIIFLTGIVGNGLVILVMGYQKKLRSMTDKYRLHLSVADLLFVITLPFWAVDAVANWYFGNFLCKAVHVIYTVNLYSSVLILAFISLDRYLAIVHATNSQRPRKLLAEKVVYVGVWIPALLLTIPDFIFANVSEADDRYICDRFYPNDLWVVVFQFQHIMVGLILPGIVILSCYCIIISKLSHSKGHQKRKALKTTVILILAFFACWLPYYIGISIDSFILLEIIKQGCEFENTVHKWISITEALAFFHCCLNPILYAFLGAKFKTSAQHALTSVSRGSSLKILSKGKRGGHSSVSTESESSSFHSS
Protocol: Namalwa cells (CXCR4 natively expressing non-adherent cells, ATCC CRL-1432) were cultured in RPMI1640 plus 10% FBS, and pen/strept. HELA cells were maintained in RPMI1640 plus 10% FBS, pen/strept and 2 mM L-glutamine. Cos-7 cells were grown in DMEM medium with […] glucose supplemented with 10% FCS, pen/strept and 2 mM L-glutamine. All cell lines were grown at 37 °C at 5% CO2. Cell media, media supplements, PBS-buffer, HEPES, antibiotic/antimycotic, pen/strept, non essential amino acid, L-glutamine, β-mercaptoethanol and sera were purchased from Gibco (Pailsey, UK). All fine chemicals were supplied by Merck (Darmstadt, Germany).
The chemotactic response of Namalwa cells (ATCC CRL-1432) to a gradient of stromal cell-derived factor 1α (SDF-1) was measured using a modified Boyden chamber chemotaxis system (ChemoTx; Neuroprobe). In this system, the upper chamber of each well is separated from the lower chamber containing the chemoattractant SDF-1 by a polycarbonate membrane (5µm pore size). A circular area of that membrane in the region that covers each lower well is enclosed by a hydrophobic mask to retain the cell suspension within this area. The system was prepared by loading the bottom wells with aliquots of […] chemotaxis medium (RPMI 1640 without Phenol red + 0.5% BSA) comprising either appropriate serial dilutions of peptides or no peptide at all in combination with SDF-1 (0.9 nM) or without the chemoattractant. The membrane was placed over the bottom wells, and aliquots of 50 µL of a suspension of Namalwa cells (3.6 x 10^6 cells/mL) in chemotaxis medium, premixed with chemotaxis medium comprising either appropriate serial dilutions of peptides or no peptide at all, was delivered onto each of the hydrophobically limited regions of the upper surface of the membrane. The cells were allowed to migrate into the bottom chamber for 5 h at 37 °C in 5% CO2. After this period, the membrane was removed and its topside was carefully wiped and washed with PBS to eliminate non-migrated cells. Migrated cells were transferred using a "funnel" adaptor to a receiving 96-well plate and the cell number was determined by using the CyQuant™ NF cell proliferation assay (Invitrogen) based on the measurement of cellular DNA content via fluorescent dye binding. Following the manufacturer's directions, 50 µL of CyQuant™ dye reagent/HBSS buffer (1/500 [v/v]) were added to each well of the above mentioned receiving 96-well plate. After incubation for 0.5 h at room temperature the plate was sealed and the fluorescence intensity of each sample was measured by using a Wallac 1420 VICTOR^2™ plate reader (PerkinElmer) with excitation at 485 nm and emission detection at 535 nm. Finally, the data were normalized by using the controls and IC50-values were determined using GraphPad Prism™ (GraphPad) by fitting a logarithmic curve to the averaged datapoints.

[2] = system: human red blood cells (hRBC); experiment: Hemolysis; assay type: cell-based; details: 100 µM, 20% hRBC, 1 h at 37°C
Protocol: The peptides were tested for their hemolytic activity against human red blood cells (hRBC). Fresh hRBC were washed four times with phosphate buffered saline (PBS) and centrifuged for 10 min at 3000 x g. Compounds (100 µM) were incubated with 20% hRBC (v/v) for 1 h at 37°C and shaking at 300 rpm. The final erythrocyte concentration was approximately 0.9 x 10^9 cells/mL. A value of 0% and 100% cell lysis, respectively, was determined by incubation of hRBC in the presence of PBS containing 0.001% acetic acid and 2.5% Triton X-100 in H2O respectively. The samples were centrifuged, the supernatants were 8-fold diluted in PBS buffer and the optical densities (OD) were measured at 540 nm. The 100% lyses value (OD540H2O) gave an OD540 of approximately 0.5-1.0. Percent hemolysis was calculated as follows: (OD540peptide/OD540H2O) x 100%. [formula]

[3] = Plasma stability, human plasma; assay type: in vitro ADME; details: human plasma, 37° C, last time point 1440 min
Protocol: (§1) The stability of the peptides in human and mouse plasma was determined by applying the following method: 346.5 µL/deep well of freshly thawed human plasma (Basler Blutspende-dienst) and mouse plasma (Harlan Sera-Lab, UK), respectively, were spiked with 3.5 µL/well of compound dissolved in DMSO/H2O (90/10 [v/v], 1 mM, triplicate) and incubated at 37° C. At t = 0, 15, 30, 60, 120, 240 and 1440 min aliquots of 50 µL were transferred to filtration plate wells containing 150 µL/well of 2% formic acid in acetonitrile. Following shaking for 2 min the occurred suspensions were filtrated by vacuum. 100 µL of each filtrate were transferred to a propylene microtiter plate and dried under N2. The residual solids were reconstituted by adding 100 µL/well of water/acetonitrile, 95/5 (v/v) + 0.2% formic acid and analyzed by LC/MS as follows: Column: Waters, XBridge C18, mobile phases: (A) water + 0.1% formic acid and (B) acetonitrile/water, 95/5 (v/v) + 0.1% formic acid, gradient: 5%-100% (B) in 1.8 minutes, electrospray ionization, MRM detection (triple quadrupole). The peak areas were determined and triplicate values are averaged. The stability is expressed in percent of the initial value at t = 0. (tx/t0 x 100). By using the TREND function of EXCEL (Microsoft Office 2003) T1/2 were determined.

[4] = Plasma stability, mouse plasma; assay type: in vitro ADME; details: mouse plasma, 37° C, last time point 1440 min
Protocol: as §1

[5] = Drug loading calculations via maintenance dose rate (rate of infusion); details: CLiv-mouse values scaled by 0.127 (GFR human/GFR mouse)
Protocol: The drug load for an implant comprising a peptide of the invention was calculated following the basic principles in pharmacokinetics (see also J. Gabrielsson, D. Weiner, "Pharmacokinetics and Pharmaco-dynamics Data Analysis: Concepts and Applications", 4th edition, Swedish Pharmaceutical Press, Stockholm, Sweden, 2006) whereby the maintainance dose rate (rate of infusion, Rin) can be defined as the rate at which a drug is to be administered to reach a steady state of a certain dose in the plasma. The maintainance dose rate can be expressed using the correlation Rin [g/(h*kg)] = CLiv[L/(h*kg)] x Css,eff [g/L], wherein CLiv is the clearance (i.v. - admin.) and Css,eff the effective concentration of the drug in the plasma at steady state considering an efficacy margin A: Css,eff [g/L] = A x (IC50/fu) x MW [(mol/L)*(g/mol)]. Therefore, the total amount of a drug loaded into an implant providing for a constant effective concentration of that drug in the plasma for a certain period of time in a subject of a certain body weight can be calculated by applying the following correlation: Drugload [g/subject] = Rin [g/(h*kg)] x duration[h] x BW [kg/subject]. [formula]
Further pre-conditions are an efficacy margin of A = 3, a study duration of 672 h (28 days) and a body weight of a human suject of 70 kg. The glomerular filtration rate (GFR) which mainly influences the clearance of the peptides is highly dependent on the species. In general, the GFR of humans is averaged to be 107 mL/(h*kg) compared to the GFR of mouse being 840 mL/(h*kg). Therefore, the CLiv-mouse values indicated in Table 5b were allometrically scaled by 107 mL/(h*kg)/840 mL/(h*kg) = 0.127 before employed in the above described correlations.

Question: Which IC50 [1] does the source give for `CC(C)NCCCC[C@@H]1NC(=O)[C@H](CCC(N)=O)NC(=O)[C@H](Cc2ccc(O)cc2)NC(=O)[C@@H]2CSSC[C@H](NC(=O)[C@H](C)NC(=O)[C@H](Cc3c[nH]cn3)NC(=O)[C@H](Cc3ccc(O)cc3)NC(=O)[C@@H]3CCCN3C(=O)[C@H]3CCCN3C1=O)C(=O)N[C@@H](CO)C(=O)N[C@@H](C)C(=O)N[C@H](Cc1ccc(O)cc1)C(=O)N[C@@H](CCN)C(=O)N[C@@H](CCCNC(=N)N)C(=O)N[C@@H](Cc1ccc(O)cc1)C(=O)N2` [Ex. 3, cyclo(-Tyr^1-His^2-Ala^3-Cys^4-Ser^5-Ala^6-^DTyr^7-Dab^8-Arg^9-Tyr^10-Cys^11-Tyr^12-Gln^13-Lys(iPr)^14-^DPro^15-Pro^16-), disulfide bond between Cys^4 and Cys^11] (cyclo(YHACSA[dY][Dab]RYCYQ[Lys(iPr)][dP]P); disulfide 4-11) here?
Answer: The IC50 was 0.11 ± 0.01 nM.

Question: And the “Hemolysis at 100 µM” value [2]?
Answer: Its value is 1.0%.

Question: And the “Plasma stability human pl. T1/2” value [3]?
Answer: The value was 24 h.

Question: And the “Plasma stability mouse pl. T1/2” value [4]?
Answer: The value was 24 h.

Question: And the “CLiv, human (allometric scaled)” value [5]?
Answer: The value was 2.35 mL/min/kg.

Question: Which IC50 [1] does the source give for `CC(C)NCCCC[C@@H]1NC(=O)[C@H](CCC(N)=O)NC(=O)[C@H](Cc2ccc(O)cc2)NC(=O)[C@@H]2CSSC[C@H](NC(=O)[C@H](Cc3ccc(O)cc3)NC(=O)[C@H](Cc3c[nH]cn3)NC(=O)[C@H](Cc3ccc(O)cc3)NC(=O)[C@@H]3CCCN3C(=O)[C@H]3CCCN3C1=O)C(=O)N[C@@H](CO)C(=O)N[C@@H](C)C(=O)N[C@H](Cc1ccc(O)cc1)C(=O)N[C@@H](CCCNC(C)C)C(=O)N[C@@H](CCCNC(=N)N)C(=O)N[C@@H](Cc1ccc(O)cc1)C(=O)N2` [Ex. 5, cyclo(-Tyr^1-His^2-Tyr^3-Cys^4-Ser^5-Ala^6-^DTyr^7-Orn(iPr)^8-Arg^9-Tyr^10-Cys^11-Tyr^12-Gln^13-Lys(iPr)^14-^DPro^15-Pro^16-), disulfide bond between Cys^4 and Cys^11] (cyclo(YHYCSA[dY][Orn(iPr)]RYCYQ[Lys(iPr)][dP]P); disulfide 4-11) here?
Answer: The IC50 was 0.43 ± 0.24 nM.

Question: And the “Hemolysis at 100 µM” value [2]?
Answer: Its value is 3.5%.

Question: What about the “Plasma stability human pl. T1/2” value [3] of the same compound?
Answer: Its value is 24 h.

Question: What about the “Plasma stability mouse pl. T1/2” value [4] of the same compound?
Answer: Its value is 24 h.

Question: And the “CLiv, human (allometric scaled)” value [5]?
Answer: Its value is 1.77 mL/min/kg.
